In patent US10512673B2, “Use of peptide-based inhibitors of the stat3-IL10 pathway for treating bacterial infection and granulomatous disease” (The United States of America, as Represented by the …, priority 2015, dated 2019):

Key:
[1] = mouse, in vivo
bax = assay: qRT-PCR of bax transcript in lungs; type: in vivo, C57BL/6 mice; conditions: 100 μg/dose
Protocol: (§1) The upper right lobe of the lungs from each mouse were homogenized in Trizol (Invitrogen) using Next Advance bullet blender (Averill Park, N.Y.) and frozen at −80° C. immediately. RNA was extracted following the manufacturer's protocol. Trizol DNA was digested with RQ1 RNase-free DNase (Promega, Madison, Wis.) and RNA was re-isolated using Trizol. Finally, the concentration of RNA in each sample was measured by spectrophotometry and the RNA was reverse transcribed with M-Mulv (New England Bio Labs, Ipswich, Mass.) and random hexamers (Roche, Basel, Switzerland).
(§2) When lung homogenates from each mouse were used to determine the levels of expression of Bcl-2 and Atg-5 protein using ELISA, the results were similar to those obtained by qRT-PCR.

Il-10 [2] = test system: Il-10; parameters: species or system C57BL/6 mice; conditions: mouse, in vivo
pSTAT3 (pY705) = assay: ELISA for pSTAT3 in lung homogenates; type: in vivo, C57BL/6 mice; conditions: after two weeks of treatment (100 μg/dose), vs untreated infected mice
Protocol: Lung homogenates were screened for pSTAT3 (pY705 (tyrosine 705)) by ELISA following manufacturer's recommendations (Life Technologies). Briefly, the lung homogenates were re-suspended in the cell extraction buffer and incubated during 30 minutes on ice with intermittent vortexing followed by pelleting of the cell debris. Supernatants from each sample were collected and screened for their content of STAT3 (pY705). Standards were prepared using purified recombinant phosphorylated STAT3 protein. Thereafter, 100 μl of standards and diluted samples or control aliquots were distributed into microtiter wells and were incubated in the wells pre-coated with anti-pSTAT3 antibody. The reactions were developed using the detection anti-pSTAT3 antibody followed by 30 minutes incubation at RT with anti-rabbit IgG HRP. The reactions were visualized by incubation with a chromogenic substrate of HRP during 30 minutes at room temperature. The reactions were stopped with 100 μl of stop solution added to each well. Absorbance for each well was read at 450 nm.

arg1 [3] = assay: RT-PCR of arg1 transcript in lungs; type: in vivo, C57BL/6 mice; conditions: mouse, in vivo
pSTAT3 = assay: Immunohistochemistry for pSTAT3 in lung tissue sections; parameters: species or system C57BL/6 mice; conditions: mouse, in vivo
nos2 [4] = assay: RT-PCR of nos2 transcript in lungs; type: in vivo, C57BL/6 mice; conditions: mouse, in vivo
beclin-1 = assay: qRT-PCR of beclin-1 transcript in lungs; type: in vivo, C57BL/6 mice; conditions: 100 μg/dose
Protocol: as §1, §2

[5] = test system: granuloma lesions in the lungs; assay: Lung histopathology (H&E); parameters: species or system C57BL/6 mice; conditions: mouse, in vivo
Il-10 [6] = assay: Cytometric bead array for IL-10 in lung homogenates; parameters: species or system C57BL/6 mice; conditions: mouse, in vivo
arg1 [7] = assay: Arginase activity in lung homogenates; type: in vivo, C57BL/6 mice; conditions: 100 μg/dose, vs untreated infected mice
Protocol: (§3) The quantification of end effector molecules and enzymes involved in the host antimicrobial activity in the lungs of mice were performed using lung homogenates obtained as indicated above. Lung homogenate supernatants were used in a Griess reaction (G 7921, Molecular probes, Invitrogen, Eugene, Oreg.), Arginase assay (Bioassay Systems, DARG-200), NADPH (Bioassay Systems, ECNP-100), and lysozyme (Molecular Probes E-22013).
The level of arginase activity in each lung homogenate was performed using the Quanti-Chrom Arginase Assay Kit (Bio Assay Systems, Hayward, Calif.). Briefly, protein concentration was normalized to 100 μg/ml. As a control, an aliquot of normalized protein was heat-inactivated at 90° C. for 10 min. 40 μl of untreated or heat-inactivated sample was incubated at 37° C. for 60 min with 10 μl of 5× reagent. Thereafter, the reaction was processed as recommended by the manufacturer and analyzed in a plate reader (Bio-Rad, Hercules, Calif.) at an absorbance of 430 nm. The absorbance of the heat-inactivated sample was subtracted from the respective untreated sample and then compared to urea standards. Activity of the arginase was reported in mU/mg of protein.

lysozyme = assay: Lysozyme assay in lung homogenates; type: in vivo, C57BL/6 mice; conditions: 100 μg/dose, vs untreated infected mice
Protocol: as §3
The Lysozyme assay was performed as per manufacturer's instructions. Briefly, experimental samples were first diluted in 1× reaction buffer. A volume of 50 μl was used for each reaction. Then, 50 μl of the 50 μg/ml DQ lysozyme substrate were added to each microplate well containing the experimental or the standard curve samples. The reaction mix was then incubated at 37° C. for 30 min protected from light. The fluorescence in each of the samples was measured at absorption maxima at ˜494 nm and fluorescence emission maxima at ˜518 nm.

TNFα = assay: Cytometric bead array for TNFα in lung homogenates; type: in vivo, C57BL/6 mice; conditions: CBA, 100 μg/dose, vs control mice
stat3 = test system: stat3; parameters: species or system C57BL/6 mice; conditions: mouse, in vivo
bcl-2 [8] = assay: qRT-PCR of bcl-2 transcript in lungs; type: in vivo, C57BL/6 mice; conditions: 100 μg/dose
Protocol: as §1, §2

atg5 = assay: qRT-PCR of atg5 transcript in lungs; type: in vivo, C57BL/6 mice; conditions: 100 μg/dose
Protocol: as §1, §2

[9] = test system: Mycobacterium tuberculosis (Erdman strain); conditions: in vivo
IL-12p40 = assay: Cytometric bead array for IL-12p40 in lung homogenates; type: in vivo, C57BL/6 mice; conditions: CBA, 100 μg/dose, vs control mice
nos2 [10] = assay: NOS2 activity in lung homogenates (Griess reaction); type: in vivo, C57BL/6 mice; conditions: 100 μg/dose, vs untreated infected mice
Protocol: as §3
For the Griess reaction, reagents were acclimated at room temperature for 20 min prior to the assay. Thereafter, the samples were centrifuged at 1200 rpm for 2 min and the Griess reaction was performed following the manufacturer's instructions. Briefly, samples and prepared standards were diluted following the manufacturer's instructions with distilled sterile water in a 96 well plate. 20 μl of Griess reaction were added to each reaction well. Samples and standards were incubated for 30 minutes in the dark. Thereafter, samples were read using a Biotech Synergy 2 Multi-Mode Micro Plate Reader [U5] spectrophotometer at 546 nm.

IL-6 = assay: Cytometric bead array for IL-6 in lung homogenates; type: in vivo, C57BL/6 mice; conditions: CBA, 100 μg/dose, vs control mice
NADPH = NADPH assay in lung homogenates; type: in vivo, C57BL/6 mice; conditions: 100 μg/dose, vs untreated infected mice
Protocol: as §3
For the NADPH assay, each lung homogenate was mixed in a 1.5 mL Eppendorf tube with 100 μL NADPH extraction buffer for NADPH determination. Extracts then were heated at 60° C. for 5 min and then 20 μl assay buffer and 100 μl of the opposite extraction buffer were added to neutralize the extracts. Samples were briefly vortexed and centrifuged at 13,000 rpm for 5 min. The resulting supernatant was used for NADPH assays. 40 μl of standards were then transferred into wells of a clear bottom 96-well plate. For each well of the reaction, 80 μL working reagent were added per well quickly. Optical density for time “zero” (OD0) optical density after 30 min incubation (OD30) at room temperature were read at 565 nm (520-600 nm).

bcl-2 [11] = assay: ELISA for Bcl-2 protein in lung homogenates; type: in vivo, C57BL/6 mice; conditions: 100 μg/dose, vs untreated infected mice
Source text: as §2

IFNγ = assay: Cytometric bead array for IFNγ in lung homogenates; type: in vivo, C57BL/6 mice; conditions: CBA, 100 μg/dose, vs control mice
[12] = test system: Mycobacterium tuberculosis (Erdman strain); conditions: in vivo; remark: listed apart in the source

LDTRYLEQLHKLY [ST3-H2A2]
adverse effects during treatment (body weight) [1]: mild weight loss
increase in expression of bax transcript (bax): > 3 fold
pulmonary expression of il-10 transcript (Il-10 [2]): increased levels of expression
level of pSTAT3 in lung homogenates (pSTAT3 (pY705)): little change
mRNA arg1 expression (in words) (arg1 [3]): decreased expression
pSTAT3 staining by IHC in lung tissue sections (pSTAT3): reduced levels of pSTAT3 staining in the center of the granuloma lesions
mRNA nos2 expression (in words) (nos2 [4]): increased more significantly
increase in expression of beclin-1 transcript (beclin-1): > 3 fold
histopathology of H&E stained lung sections [5]: increased numbers of clusters and highly packed lymphocytes
level of IL-10 in lung homogenates (Il-10 [6]): little change
Arg1 activity (arg1 [7]): reduced or not changed
lysozyme activity (DQ substrate) (lysozyme): significantly elevated
level of TNFα in the lungs (TNFα): reduced
pulmonary expression of stat3 transcript (stat3): no significant changes
increase in expression of bcl-2 transcript (bcl-2 [8]): > 3 fold
increase in expression of atg5 transcript (atg5): > 3 fold
reduction of splenic bacilli load [9]: 0.9 log10CFU
expression level of IL-12p40 in the lungs (IL-12p40): increased and up
NOS2 activity (concentration of NO) (nos2 [10]): significantly elevated
expression level of IL-6 in the lungs (IL-6): increased
NADPH activity (pyridine nucleotide) (NADPH): significantly elevated
level of Bcl-2 protein in lung homogenates (bcl-2 [11]): significantly increased
level of IFNγ expression in the lungs (IFNγ): decreased and down
reduction of pulmonary CFU [12]: 0.6 log10
reduction of pulmonary bacterial load [12]: 1.7 log10 CFU
